In US20240002391A1, “4-ALKOXYPYRROLO[2,1-F][1,2,4]TRIAZINES AND PREPARATION AND USES THEREOF” (BioSplice Therapeutics, Inc., priority 2022, published 2024) one finds IC50 data, which are given here for 27 compounds.

The assay concerns the target recombinant DYRK1A kinase (Homo sapiens (Human), UniProt Q13627). Kind of assay: DYRK1A kinase assay (Ser/Thr 18 peptide Z-lyte FRET). The following applies: DYRK1A kinase activity, Z-lyte Ser/Thr 18 peptide, 15 μM ATP; method text calls the value IC50; read-out: EC50 (the source's name). Type of assay: biochemical. The method in brief:
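Compounds were tested as 11-point, threefold dilution series starting at 10 μM against recombinant enzyme in a 1 h room-temperature reaction with 15 μM ATP and 4 μM peptide substrate. Phosphorylation is read by protease-coupled FRET, and IC50 values come from curve fitting.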
Regarding `CCC(=O)N1CC[C@H](Nc2nc(OC)c3c(-c4ccc5nnn(CCF)c5c4)ccn3n2)[C@H](F)C1` [Compound 1143, 1-((3R,4S)-3-Fluoro-4-((5-(1-(2-fluoroethyl)-1H-benzo[d][1,2,3]triazol-6-yl)-4-methoxypyrrolo[2,1-f][1,2,4]triazin-2-yl)amino)piperidin-1-yl)propan-1-one], the IC50 turned out to be 1.8 nM.

In the case of `COc1nc(N[C@@H]2CCN(C)CC2(F)F)nn2ccc(-c3ccc4nnn(CC(F)F)c4c3)c12` [Compound 777, (R)—N-(3,3-Difluoro-1-methylpiperidin-4-yl)-5-(1-(2,2-difluoroethyl)-1H-benzo[d][1,2,3]triazol-6-yl)-4-methoxypyrrolo[2,1-f][1,2,4]triazin-2-amine], the IC50 stood at 1.6 nM.

Consider `COc1nc(NC2CC3(C2)CN(C(C)=O)C3)nn2ccc(-c3ccn4nccc4c3)c12` [Compound 37, 1-(6-((4-Methoxy-5-(pyrazolo[1,5-a]pyridin-5-yl)pyrrolo[2,1-f][1,2,4]triazin-2-yl)amino)-2-azaspiro[3.3]heptan-2-yl)ethan-1-one], for which the IC50 stood at 2.5 nM.

`CNC(=O)c1cnc2ccc(-c3ccn4nc(NC5CCC6(CC5)COC6)nc(OC)c34)cn12` [Compound 107, 6-(2-((2-Oxaspiro[3.5]nonan-7-yl)amino)-4-methoxypyrrolo[2,1-f][1,2,4]triazin-5-yl)-N-methylimidazo[1,2-a]pyridine-3-carboxamide]: the IC50 was determined as 0.9 nM.

`COc1nc(N[C@@H]2CCN(C3COC3)CC2(F)F)nn2ccc(-c3cc(F)c4nccn4c3)c12` [Compound 435, (R)—N-(3,3-Difluoro-1-(oxetan-3-yl)piperidin-4-yl)-5-(8-fluoroimidazo[1,2-a]pyridin-6-yl)-4-methoxypyrrolo[2,1-f][1,2,4]triazin-2-amine]: the IC50 stood at 8.9 nM.

`[2H]C([2H])([2H])O[C@H]1CC[C@@H](Nc2nc(OC)c3c(-c4cnc5nccn5c4)ccn3n2)CC1` [Compound 245, 5-(Imidazo[1,2-a]pyrimidin-6-yl)-4-methoxy-N-(cis-4-(methoxy-d3)cyclohexyl)pyrrolo[2,1-f][1,2,4]triazin-2-amine]: the IC50 came out at 0.7 nM.

As to `COc1nc(N[C@H]2C[C@@H](OCCO)C2)nn2ccc(-c3ccc4nnn(CC(F)(F)F)c4c3)c12` [Compound 904, 2-(cis-3-((4-Methoxy-5-(1-(2,2,2-trifluoroethyl)-1H-benzo[d][1,2,3]triazol-6-yl)pyrrolo[2,1-f][1,2,4]triazin-2-yl)amino)cyclobutoxy)ethan-1-ol], the IC50 came to 1.8 nM.

On to `CCN1CC[C@@H](Nc2nc(OC)c3c(-c4ccc5nnn(C)c5c4)ccn3n2)C(F)(F)C1` [Compound 627, (R)—N-(1-Ethyl-3,3-difluoropiperidin-4-yl)-4-methoxy-5-(1-methyl-1H-benzo[d][1,2,3]triazol-6-yl)pyrrolo[2,1-f][1,2,4]triazin-2-amine], for which the IC50 was determined as 3.9 nM.

Consider `COc1nc(N[C@@H]2CCN(C)C[C@@H]2F)nn2ccc(-c3ccn4nccc4c3)c12` [Compound 31, N-((3S,4R)-3-fluoro-1-methylpiperidin-4-yl)-4-methoxy-5-(pyrazolo[1,5-a]pyridin-5-yl)pyrrolo[2,1-f][1,2,4]triazin-2-amine], for which the IC50 stood at 7.7 nM.

Regarding `CNC(=O)c1cnc2ccc(-c3ccn4nc(N[C@H]5CC[C@](C)(O)CC5)nc(OC)c34)cn12` [Compound 441, 6-(2-(((1r,4r)-4-Hydroxy-4-methylcyclohexyl)amino)-4-methoxypyrrolo[2,1-f][1,2,4]triazin-5-yl)-N-methylimidazo[1,2-a]pyridine-3-carboxamide], the IC50 was determined as 1.1 nM.

As for `COc1nc(N[C@H]2CCN(C3(C#N)COC3)C[C@H]2F)nn2ccc(-c3ccc4nnn(C(C)C)c4c3)c12` [Compound 690, 3-((3R,4S)-3-fluoro-4-((5-(1-isopropyl-1H-benzo[d][1,2,3]triazol-6-yl)-4-methoxypyrrolo[2,1-f][1,2,4]triazin-2-yl)amino)piperidin-1-yl)oxetane-3-carbonitrile], the IC50 was found to be 7.8 nM.

For `COCCO[C@H]1CC[C@@H](Nc2nc(OC)c3c(-c4ccc5nccn5c4)ccn3n2)CC1` [Compound 51, 5-(Imidazo[1,2-a]pyridin-6-yl)-4-methoxy-N-(cis-4-(2-methoxyethoxy)cyclohexyl)pyrrolo[2,1-f][1,2,4]triazin-2-amine], the IC50 is 6.7 nM.

As to `COc1nc(N[C@H]2C[C@](C)(NC(C)=O)C2)nn2cc(F)c(-c3ccc4ncnn4c3)c12` [Compound 585, N-((1r,3r)-3-((5-([1,2,4]Triazolo[1,5-a]pyridin-6-yl)-6-fluoro-4-methoxypyrrolo[2,1-f][1,2,4]triazin-2-yl)amino)-1-methylcyclobutyl)acetamide], the IC50 was determined as 2.2 nM.

On to `COc1nc(N[C@H]2C[C@@H](OCCO)C2)nn2ccc(-c3ccc4nccnc4c3)c12` [Compound 329, 2-(cis-3-((4-Methoxy-5-(quinoxalin-6-yl)pyrrolo[2,1-f][1,2,4]triazin-2-yl)amino)cyclobutoxy)ethan-1-ol], for which the IC50 is 1.9 nM.

In the case of `CNC(=O)[C@]1(C)C[C@@H](Nc2nc(OC)c3c(-c4ccc5nc(C)n(CC(F)F)c5c4)ccn3n2)C1` [Compound 502, trans-3-((5-(1-(2,2-Difluoroethyl)-2-methyl-1H-benzo[d]imidazol-6-yl)-4-methoxypyrrolo[2,1-f][1,2,4]triazin-2-yl)amino)-N,1-dimethylcyclobutane-1-carboxamide], the IC50 turned out to be 1.4 nM.

In the case of `COc1nc(N[C@H]2CC[C@](C)(O)CC2)nn2cc(F)c(-c3ccc4ncccc4c3)c12` [Compound 1056, trans-4-((6-Fluoro-4-methoxy-5-(quinolin-6-yl)pyrrolo[2,1-f][1,2,4]triazin-2-yl)amino)-1-methylcyclohexan-1-ol], the IC50 amounted to 1.1 nM.

Consider `COc1nc(N[C@H]2C[C@@](C)(NC(C)=O)C2)nn2ccc(-c3cc(F)c4nc(C)n(CC(F)F)c4c3)c12` [Compound 148, N-((1s,3s)-3-((5-(1-(2,2-Difluoroethyl)-4-fluoro-2-methyl-1H-benzo[d]imidazol-6-yl)-4-methoxypyrrolo[2,1-f][1,2,4]triazin-2-yl)amino)-1-methylcyclobutyl)acetamide], for which the IC50 is 1.8 nM.

For the compound `COc1nc(N[C@H]2C[C@](C)(NC(C)=O)C2)nn2ccc(-c3cc(F)c4nc(C)n(CC(F)F)c4c3)c12` [Compound 149, N-((1r,3r)-3-((5-(1-(2,2-Difluoroethyl)-4-fluoro-2-methyl-1H-benzo[d]imidazol-6-yl)-4-methoxypyrrolo[2,1-f][1,2,4]triazin-2-yl)amino)-1-methylcyclobutyl)acetamide], the IC50 came out at 1.5 nM.

`CCN1CC[C@@H](Nc2nc(OC)c3c(-c4ccc5nnn(CC(F)F)c5c4)ccn3n2)C(F)(F)C1` [Compound 780, (R)-5-(1-(2,2-Difluoroethyl)-1H-benzo[d][1,2,3]triazol-6-yl)-N-(1-ethyl-3,3-difluoropiperidin-4-yl)-4-methoxypyrrolo[2,1-f][1,2,4]triazin-2-amine]: the IC50 came out at 1.9 nM.

On to `COc1nc(N[C@H]2C[C@](C)(NC(=O)OC(C)(C)C)C2)nn2ccc(-c3ccn4nccc4c3)c12` [Compound 98, tert-Butyl (trans-3-((4-methoxy-5-(pyrazolo[1,5-a]pyridin-5-yl)pyrrolo[2,1-f][1,2,4]triazin-2-yl)amino)-1-methylcyclobutyl)carbamate], for which the IC50 turned out to be 25.6 nM.

On to `COc1nc(NC2CCN(C(C)=O)CC2)nn2ccc(-c3ccc4nccn4c3)c12` [Compound 63, 1-(4-((5-(Imidazo[1,2-a]pyridin-6-yl)-4-methoxypyrrolo[2,1-f][1,2,4]triazin-2-yl)amino)piperidin-1-yl)ethan-1-one], for which the IC50 was 4.6 nM.

Regarding `CN1CC[C@@H](Nc2nc(OC3COC3)c3c(-c4ccc5nccnc5c4)ccn3n2)C(F)(F)C1` [Compound 1136, (R)—N-(3,3-Difluoro-1-methylpiperidin-4-yl)-4-(oxetan-3-yloxy)-5-(quinoxalin-6-yl)pyrrolo[2,1-f][1,2,4]triazin-2-amine], the IC50 was 3.8 nM.

On to `COc1nc(N[C@@H]2CN(C3COC3)C[C@@H]2F)nn2ccc(-c3ccc4nccnc4c3)c12` [Compound 355, N-((3R,4S)-4-Fluoro-1-(oxetan-3-yl)pyrrolidin-3-yl)-4-methoxy-5-(quinoxalin-6-yl)pyrrolo[2,1-f][1,2,4]triazin-2-amine], for which the IC50 was found to be 2.7 nM.

In the case of `COc1nc(N[C@H]2CCN(C3COC3)C[C@H]2F)nn2ccc(-c3ccc4nnn(CC(F)F)c4c3)c12` [Compound 762, 5-(1-(2,2-Difluoroethyl)-1H-benzo[d][1,2,3]triazol-6-yl)-N-((3R,4S)-3-fluoro-1-(oxetan-3-yl)piperidin-4-yl)-4-methoxypyrrolo[2,1-f][1,2,4]triazin-2-amine], the IC50 was 1.3 nM.

With `COc1nc(N[C@H]2CCN(C3COC3)CC2(F)F)nn2ccc(-c3ccc4nc(C)n(CC(F)F)c4c3)c12` [Compound 143, (S)—N-(3,3-Difluoro-1-(oxetan-3-yl)piperidin-4-yl)-5-(1-(2,2-difluoroethyl)-2-methyl-1H-benzo[d]imidazol-6-yl)-4-methoxypyrrolo[2,1-f][1,2,4]triazin-2-amine], the IC50 amounted to 10.8 nM.

As to `C[C@]1(O)CC[C@H](Nc2nc(O)c3c(-c4ccc5nccnc5c4)ccn3n2)CC1` [Compound 346, 2-((trans-4-Hydroxy-4-methylcyclohexyl)amino)-5-(quinoxalin-6-yl)pyrrolo[2,1-f][11,2,4]triazin-4-ol], the IC50 came to 34.4 nM.

On to `COc1nc(N[C@@H]2CCN(C3COC3)CC2(F)F)nn2cc(F)c(-c3ccc4ncccc4c3)c12` [Compound 1062, (R)—N-(3,3-Difluoro-1-(oxetan-3-yl)piperidin-4-yl)-6-fluoro-4-methoxy-5-(quinolin-6-yl)pyrrolo[2,1-f][1,2,4]triazin-2-amine], for which the IC50 came out at 3.7 nM.
